Test results: the supplement of paper PMC11451515

System: NOMO1
Experiment: cell viability relative to DMSO control; higher = less cytotoxic
Settings: 48 h
How it was run: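 Viability, reported as a per-plate percentage of DMSO wells with cell-free wells as background, came from CellTiter-Glo One luminescence. Reading took place after 48 h at 37°C. Before that, NOMO1 or SEM (500 cells/well) or P12-Ichikawa (1000 cells/well) leukemia cells, adapted for at least four passages in each medium, were seeded in 1536-well plates (5 μl) and pin-dosed with library compounds in DMSO, 47 μM to 0.79 nM over 11 threefold points.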

[1] = HPLM + 10% dialyzed FBS, 0.000781 µM
[2] = HPLM + 10% dialyzed FBS, 0.00234 µM
[3] = HPLM + 10% dialyzed FBS, 0.00702 µM
[4] = HPLM + 10% dialyzed FBS, 0.0211 µM
[5] = HPLM + 10% dialyzed FBS, 0.0632 µM
[6] = HPLM + 10% dialyzed FBS, 0.19 µM
[7] = HPLM + 10% dialyzed FBS, 0.569 µM
[8] = HPLM + 10% dialyzed FBS, 1.71 µM
[9] = HPLM + 10% dialyzed FBS, 5.12 µM
[10] = HPLM + 10% dialyzed FBS, 15.4 µM
[11] = HPLM + 10% dialyzed FBS, 46.1 µM
[12] = RPMI 5 mM glucose + 10% FBS, 0.000781 µM
[13] = RPMI 5 mM glucose + 10% FBS, 0.00234 µM
[14] = RPMI 5 mM glucose + 10% FBS, 0.00702 µM
[15] = RPMI 5 mM glucose + 10% FBS, 0.0211 µM
[16] = RPMI 5 mM glucose + 10% FBS, 0.0632 µM
[17] = RPMI 5 mM glucose + 10% FBS, 0.19 µM
[18] = RPMI 5 mM glucose + 10% FBS, 0.569 µM
[19] = RPMI 5 mM glucose + 10% FBS, 1.71 µM
[20] = RPMI 5 mM glucose + 10% FBS, 5.12 µM
[21] = RPMI 5 mM glucose + 10% FBS, 15.4 µM
[22] = RPMI 5 mM glucose + 10% FBS, 46.1 µM
[23] = RPMI 5 mM glucose + 10% dialyzed FBS, 0.000781 µM
[24] = RPMI 5 mM glucose + 10% dialyzed FBS, 0.00234 µM
[25] = RPMI 5 mM glucose + 10% dialyzed FBS, 0.00702 µM
[26] = RPMI 5 mM glucose + 10% dialyzed FBS, 0.0211 µM
[27] = RPMI 5 mM glucose + 10% dialyzed FBS, 0.0632 µM
[28] = RPMI 5 mM glucose + 10% dialyzed FBS, 0.19 µM
[29] = RPMI 5 mM glucose + 10% dialyzed FBS, 0.569 µM
[30] = RPMI 5 mM glucose + 10% dialyzed FBS, 1.71 µM
[31] = RPMI 5 mM glucose + 10% dialyzed FBS, 5.12 µM
[32] = RPMI 5 mM glucose + 10% dialyzed FBS, 15.4 µM
[33] = RPMI 5 mM glucose + 10% dialyzed FBS, 46.1 µM

SMILES | cell viability [1] | cell viability [2] | cell viability [3] | cell viability [4] | cell viability [5] | cell viability [6] | cell viability [7] | cell viability [8] | cell viability [9] | cell viability [10] | cell viability [11] | cell viability [12] | cell viability [13] | cell viability [14] | cell viability [15] | cell viability [16] | cell viability [17] | cell viability [18] | cell viability [19] | cell viability [20] | cell viability [21] | cell viability [22] | cell viability [23] | cell viability [24] | cell viability [25] | cell viability [26] | cell viability [27] | cell viability [28] | cell viability [29] | cell viability [30] | cell viability [31] | cell viability [32] | cell viability [33]
O=P1(NCCCl)OCCCN1CCCl (stereo not drawn) | 90.5% | 102% | 96.8% | 104% | 97.7% | 84.6% | 119% | 117% | 99.7% | 109% | 76.1% | 82.3% | 88% | 79.4% | 77.2% | 77% | 89.2% | 83.5% | 86.8% | 91.1% | 76.8% | 79.4% | 86.9% | 87.6% | 81.1% | 85.3% | 85.6% | 87.9% | 87.4% | 97.5% | 84.6% | 98.5% | 78.1%
O=C1N\N=C(\C[C@@H]2CCN(C2)C(=O)C3CC3)N1C4=CC=C(C=C4)C5=CC=C6OC=CC6=C5 | 99.4% | 89% | 90.1% | 94.5% | 94.7% | 99% | 92% | 109% | 94.4% | 73.9% | 92.2% | 78.2% | 77.4% | 87.3% | 77.6% | 90% | 79.9% | 95.3% | 82.3% | 85.6% | 81.3% | 80.5% | 85.5% | 86.8% | 75.5% | 82.5% | 80.5% | 81.6% | 85.4% | 82.3% | 86% | 75.5% | 87.7%
COc1ccccc1N1CCN(CC(O)COc2cccc3ccccc23)CC1 (stereo not drawn) | – | – | – | – | – | – | – | – | – | – | – | 115% | 131% | 122% | 133% | 132% | 143% | 116% | 115% | 113% | 107% | 23.6% | – | – | – | – | – | – | – | – | – | – | –
Oc1ccc(-c2nc(-c3ccncc3)c(-c3ccc(F)cc3)[nH]2)cc1 | 99.7% | 113% | 122% | 117% | 125% | 135% | 147% | 121% | 19.1% | 2.63% | 1.72% | 100% | 106% | 106% | 112% | 116% | 135% | 150% | 125% | 118% | 18.4% | 1.54% | 105% | 124% | 126% | 110% | 122% | 133% | 136% | 128% | 130% | 36.8% | 1.72%
Cc1ccc(Nc2nccc(N(C)c3ccc4c(C)n(C)nc4c3)n2)cc1[S+](N)(=O)[O-] | 107% | 118% | 102% | 112% | 121% | 129% | 126% | 112% | 132% | 112% | 50.9% | 93.9% | 101% | 92.1% | 103% | 99.5% | 101% | 107% | 114% | 105% | 100% | 50.3% | 95.8% | 92.1% | 102% | 85.4% | 104% | 112% | 105% | 123% | 110% | 97.2% | 71.1%
COc1cc([C@@H]2c3cc4c(cc3[C@@H](O[C@@H]3O[C@@H]5CO[C@@H](C)O[C@H]5[C@H](O)[C@H]3O)[C@H]3COC(=O)[C@H]23)OCO4)cc(OC)c1O | 93.9% | 98.1% | 83.4% | 103% | 87.5% | 99.9% | 96.3% | 60.3% | 19.3% | 18.1% | 21.6% | 95.4% | 84.9% | 89.9% | 85.9% | 79.1% | 81.1% | 91.4% | 63% | 10.3% | 11.7% | 15.3% | 84.7% | 76.7% | 80.7% | 85.9% | 81.7% | 82.1% | 87.9% | 73.7% | 15.6% | 13.1% | 18.9%
NCC/1=C/NC(=S)N1[C@H]2CCC3=C(F)C=C(F)C=C3C2 | – | – | – | – | – | – | – | – | – | – | – | 106% | 108% | 105% | 102% | 112% | 103% | 124% | 106% | 101% | 105% | 79.4% | – | – | – | – | – | – | – | – | – | – | –
CCC[S+](=O)([O-])Nc1ccc(F)c(C(=O)c2c[nH]c3ncc(-c4ccc(Cl)cc4)cc23)c1F | 124% | 112% | 113% | 116% | 143% | 132% | 108% | 99.7% | 108% | 116% | 93.2% | 101% | 113% | 112% | 103% | 117% | 113% | 106% | 120% | 112% | 111% | 98.9% | 113% | 116% | 112% | 129% | 109% | 112% | 121% | 107% | 108% | 112% | 94.5%
CCc1nc(C(N)=O)c(Nc2ccc(N3CCC(N4CCN(C)CC4)CC3)c(OC)c2)nc1NC1CCOCC1 | – | – | – | – | – | – | – | – | – | – | – | 99.1% | 103% | 109% | 124% | 104% | 112% | 103% | 93.7% | 64.2% | 55.8% | 43.1% | 124% | 112% | 101% | 123% | 147% | 99.9% | 77.9% | 78.7% | 57.5% | 38.1% | 33.3%
NC(=O)c1c(OCc2c(F)cc(Br)cc2F)nsc1NC(=O)NCCCCN1CCCC1 | 89.9% | 108% | 91.4% | 82.3% | 76.8% | 87.6% | 107% | 79.8% | 67.6% | 18.5% | 21.5% | 123% | 116% | 115% | 116% | 112% | 105% | 111% | 103% | 103% | 66.6% | 85.7% | – | – | – | – | – | – | – | – | – | – | –
CC1(C)NC(=O)N(c2ccc([N+](=O)[O-])c(C(F)(F)F)c2)C1=O | 93.3% | 91.4% | 90% | 107% | 96.2% | 96.9% | 82% | 92.8% | 90% | 90.1% | 82.3% | 92.9% | 95.5% | 90.9% | 94.6% | 92.8% | 88.7% | 90.1% | 97.8% | 86.3% | 82.2% | 76.4% | 80.9% | 87.7% | 90.8% | 86.6% | 86.2% | 82.2% | 89.3% | 85.9% | 86.5% | 77.5% | 82.1%
COC1=CC=CC(=C1/C2=N/CC3=C(N=C(NC4=CC(=C(C=C4)C(O)=O)OC)N=C3)C5=CC=C(Cl)C=C25)F | 78.5% | 88.3% | 78.9% | 88.2% | 76.3% | 38.6% | 53.4% | 48.3% | 58.6% | 62% | 51.6% | 70.8% | 80.6% | 77.2% | 84% | 71.4% | 28.4% | 48.8% | 46.5% | 49.8% | 53.6% | 61.8% | 82.2% | 77.5% | 72.9% | 82.2% | 63.7% | 51.9% | 49.4% | 48.2% | 49% | 50.5% | 61%
CN1C(=O)C(=C/2N(C(=O)N(C3CC3)C(=O)C2=C1/NC4=CC=C(I)C=C4F)C5=CC=CC(=C5)NC(C)=O)\C | 117% | 134% | 113% | 99.3% | 83.4% | 61.1% | 52.3% | 41.1% | 10.8% | 7.05% | 6.86% | – | – | – | – | – | – | – | – | – | – | – | 117% | 135% | 124% | 92.7% | 81% | 63.8% | 55.1% | 49.6% | 27.6% | 9.59% | 6.9%
COC1=CC2=C(C=C1CC3=C(F)C(=CC=C3)Cl)C(=O)\C(=C/N2[C@H](CO)C(C)C)C(O)=O | 122% | 142% | 123% | 128% | 114% | 131% | 124% | 118% | 127% | 89.6% | 27.7% | 115% | 117% | 109% | 104% | 115% | 129% | 108% | 102% | 110% | 102% | 14.7% | 110% | 118% | 138% | 130% | 131% | 129% | 123% | 118% | 123% | 115% | 24.7%
CC(C)(OCc1nn(Cc2ccccc2)c2ccccc12)C(=O)O | 101% | 99.8% | 108% | 116% | 120% | 84.4% | 108% | 114% | 88.8% | 85.2% | 99.1% | 84.4% | 89.3% | 98.8% | 96% | 93% | 92.2% | 99.9% | 94.2% | 89.8% | 96.8% | 83.4% | 96.2% | 91.5% | 93.3% | 108% | 91.6% | 106% | 102% | 83.6% | 111% | 95.4% | 97.4%
